Test results: patent publication US7319094B2, “Increased and sustained in vivo gene expression using a nucleic acid, histone and amphipathic compound composition” (Rhode Island Hospital, priority 2001, dated 2008)
“Also recorded” adds a separate entry of the source.

Key:
Assay type in all cases: cell-based, human
[1] = test system: PNET2 cells induced to express AD7c-NTP; assay: Crystal violet viability assay; details: 3 mM IPTG-induced AD7c-NTP; relative to un-induced FCS-stimulated and IPTG-induced NGF or PDGF stimulated cultures
Experimental: To examine the effects of different growth factors on AD7c-NTP expression (and over-expression), the cells were serum-starved for 16 hours, after which IPTG (1-5 mM) was added to the medium. Four hours later, the cells were stimulated with insulin (50 nM), IGF-1 (5 ng/ml), NGF ([…]), or platelet-derived growth factor (PDGF; 5 ng/ml) for 24-72 hours. The cells were analyzed for morphological changes, viability, AD7c-NTP immunoreactivity, and expression of pro-apoptosis genes, survival genes, and phospho-tau.
Viability was measured by a standard crystal violet assay. Crystal violet dye labels only viable cells. The assays were performed with cells seeded into 96-well plates at a density of 2×10^4 cells/well. The absorbances were measured using a Spectracount plate reader (Packard, Meriden, Conn.). The crystal violet absorbances increased linearly with cell density between 10^4 and 5×10^5 cells/well.
Cells were serum-starved for 24 hours. However, since several hours of IPTG stimulation were required to induce AD7c-NTP gene expression or CAT activity, IPTG (3 mM) was added to the cultures after 16 hours of serum-starvation, i.e. 8 hours prior to growth factor stimulation. […]
Increased cell loss associated with insulin-stimulation and AD7c-NTP over-expression Cell viability was quantified using the microculture Crystal violet assay with cells seeded into 96-well plates. […]

Bcl-2 = Bcl-2 expression, Western blot / MICE assay; details: PNET2 cells induced to express AD7c-NTP, growth factor stimulated
Excerpt: (§1) Standard Western blot assays wew used to measure cellular levels of p53, Bcl-2, p21/Waf1, phospho-tau, tau, c-fos, NTP, and activated (phosphorylated) forms of Erk mitogen activated protein (MAP) kinase, amino-terminal c-jun-activated kinase (pJNK), and p38/HOG1. Immunoprecipitation followed by Western blot analysis was used to measure p85 subunit associated with IRS1. For Western blot analysis of p53 Bcl-2, phospho-tau, tau, c-fos, and NTP, the cells were lysed in ice cold radioimmunoprecipitation assay (RIPA) buffer supplemented with protease and phosphatase inhibitors. For the immunoprecipitation studies, Western blot analysis of phospho-Erk, pJNK, and p38, and the PI3 kinase assays, the cells were harvested in Triton lysis buffer supplemented with protease and phosphatase inhibitors. Protein concentrations were measured using the BCA assay (Pierce, Rockford, Ill.). Samples containing 60 μg of protein were fractionated by sodium dodecyl sulfate polyacrylamide gel electrophoresis (SDS-PAGE), then transferred to PVDF membranes, and analyzed by Western immunoblotting. Immunoreactivity was detected with horseradish peroxidase conjugated secondary IgG and PicoWest enhanced chemiluminescence reagents (Pierce Chemical Company, Rockford, Ill.). CAT activity was measured using known methods.
The MICE assay is known in the art (e.g., as described by de la Monte et al., 1999, Biotechniques 26:107301076). The assay is a rapid and sensitive method for quantifying immunoreactivity in 96-well micro-cultures and combines the advantages of the enzyme-linked immunosorbant assay with immunocytochemical staining to permit sensitive in situ quantification of protein expression with values normalized to cell density. […] Immunoreactivity was detected using horseradish peroxidase conjugated secondary antibody (Pierce, Rockford, Ill.) and the TMB soluble peroxidase substrate (Pierce, Rockford, Ill.). Absorbances were measured at 450 nm using a Spectracount plate reader. […]

p21/Waf1 = p21/Waf1 expression, Western blot / MICE assay; details: PNET2 cells induced to express AD7c-NTP, growth factor stimulated
Excerpt: as §1, with “For the immunoprecipitation studies, Western blot analysis of phospho-Erk, pJNK, and p38, and the PI3 kinase assays, the cells were harvested in Triton lysis buffer supplemented with protease and phosphatase inhibitors.” left out
(§2) The MICE assay is known in the art (e.g., as described by de la Monte et al., 1999, Biotechniques 26:107301076). […] Immunoreactivity was detected using horseradish peroxidase conjugated secondary antibody (Pierce, Rockford, Ill.) and the TMB soluble peroxidase substrate (Pierce, Rockford, Ill.). […]

phospho-tau = phospho-tau expression, Western blot / MICE assay; details: PNET2 cells induced to express AD7c-NTP; relative to PDGF-stimulated cultures
Excerpt: as §1, with “For the immunoprecipitation studies, Western blot analysis of phospho-Erk, pJNK, and p38, and the PI3 kinase assays, the cells were harvested in Triton lysis buffer supplemented with protease and phosphatase inhibitors.” left out
as §2

phospho-Erk MAPK = assay: Growth factor stimulated phospho-Erk MAPK, Western blot
Excerpt: as §1
The potential mechanisms by which the differential effects of insulin, IGF1 and PDGF might occur were explored by examining pathways, which mediate PNET2 neuronal apoptosis and neuritic sprouting. […] Western blot analysis was performed with cell lysates obtained from cultures stimulated with insulin, IGF1, or PDGF for 0-30 minutes or 24 hours with equivalent protein loading (60 μg/sample). The membranes were probed using antibodies to Erk, phospho-Erk, Jun, and phospho-JNK. […] In contrast, after 24 hours of AD7c-NTP gene induction and growth factor stimulation, high levels of phospho-Erk MAPK were detected in the IGF-1 and PDGF-stimulated cultures, but not in the serum-starved or insulin-stimulated cultures. […] In contrast, the levels of c-fos transcription factor were equally expressed after 24 hours IPTG induction of AD7c-NTP expression and either serum starvation or stimulation with insulin, IGF1 or PDGF.

## insulin: Human insulin purchased from Novagen
[1]
  cell density (crystal violet): significantly reduced cell densities
Bcl-2
  Bcl-2 level: virtually undetectable Bcl-2 expression; also recorded: reduced levels
p21/Waf1
  p21/Waf1 level: increased levels of p21/Waf1; also recorded: significantly increased levels
phospho-tau
  phospho-tau level: increased levels
phospho-Erk MAPK; 0-30 minutes stimulation
  phospho-Erk MAPK level, short-term stimulation: increased levels
phospho-Erk MAPK; 24 hours of AD7c-NTP induction and growth factor stimulation
  phospho-Erk MAPK level, 24 hours: reduced levels
